Measurements reported in patent US20230085307A1, “PYRIDAZINONE COMPOUND AND HERBICIDE” (NISSAN CHEMICAL CORPORATION, priority 2019, published 2023).

Tested on: late watergrass
Test: Test Example 1: herbicidal activity, application before weed generation under submerged conditions (Table 16, symbol A)
Format: in vivo, late watergrass (Echinochloa oryzicola)
Details: amount of applied herbicide 320 g/ha
Method in brief: (§1)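 Emulsion formulation, water-diluted to set dose, was put onto the flooded surface (4 cm depth, alluvial soil) the same day weeds were sown and 2.5-leaf rice transplanted. After 3 weeks at 25-30 °C under glass, each species was rated 0 (≤5% kill) to 5 (≥90% kill).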

Structure (SMILES)	Herbicidal effect, A: late watergrass
COc1ccccc1-c1sc2cc(OCC(F)F)ccc2c1-c1c(O)c(C)nn(C)c1=O [3-114]	5 (Herbicidal rate of 90% or more (almost completely withered))
CCOc1ccccc1-c1sc2cc(OCCOC)ccc2c1-c1c(O)c(C)nn(C)c1=O [3-123]	5 (Herbicidal rate of 90% or more (almost completely withered))
COc1ccccc1-c1sc2cc(OCCSC)ccc2c1-c1c(O)c(C)nn(C)c1=O [3-125]	3 (Herbicidal rate of 40% or more and less than 70%)

Tested on: Japanese bulrush
Test: Test Example 1: herbicidal activity, application before weed generation under submerged conditions (Table 16, symbol B)
Format: in vivo, Japanese bulrush (Schoenoplectus juncoides)
Details: amount of applied herbicide 320 g/ha
Method in brief: as §1

Structure (SMILES)	Herbicidal effect, B: Japanese bulrush
COc1ccccc1-c1sc2cc(OCC(F)F)ccc2c1-c1c(O)c(C)nn(C)c1=O [3-114]	5 (Herbicidal rate of 90% or more (almost completely withered))
CCOc1ccccc1-c1sc2cc(OCCOC)ccc2c1-c1c(O)c(C)nn(C)c1=O [3-123]	5 (Herbicidal rate of 90% or more (almost completely withered))
COc1ccccc1-c1sc2cc(OCCSC)ccc2c1-c1c(O)c(C)nn(C)c1=O [3-125]	3 (Herbicidal rate of 40% or more and less than 70%)

Tested on: oval-leafed pondweed
Test: Test Example 1: herbicidal activity, application before weed generation under submerged conditions (Table 16, symbol C)
Format: in vivo, oval-leafed pondweed (Monochoria vaginalis)
Details: amount of applied herbicide 320 g/ha
Method in brief: as §1

Structure (SMILES)	Herbicidal effect, C: oval-leafed pondweed
COc1ccccc1-c1sc2cc(OCC(F)F)ccc2c1-c1c(O)c(C)nn(C)c1=O [3-114]	5 (Herbicidal rate of 90% or more (almost completely withered))
CCOc1ccccc1-c1sc2cc(OCCOC)ccc2c1-c1c(O)c(C)nn(C)c1=O [3-123]	5 (Herbicidal rate of 90% or more (almost completely withered))
COc1ccccc1-c1sc2cc(OCCSC)ccc2c1-c1c(O)c(C)nn(C)c1=O [3-125]	1 (Herbicidal rate of 5% or more and less than 20%)

Tested on: late watergrass
Test: Test Example 2: herbicidal activity, application during weed generation under submerged conditions (Table 17, symbol A)
Format: in vivo, late watergrass (Echinochloa oryzicola)
Details: AAH 320 g/ha; application during weed generation, submerged conditions
Method in brief: (§2)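 Steps: fill Wagner pots with alluvial soil; add water to give 4 cm depth; sow the species mixed; grow under glass at 25–30° C.; at 1–2 leaves apply water-diluted emulsion formulation to the water surface at a fixed herbicide amount; score after 3 weeks.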

Structure (SMILES)	herbicidal effect rating, A: late watergrass
COc1ccccc1-c1sc2cc(OCC(F)F)ccc2c1-c1c(O)c(C)nn(C)c1=O [3-114]	3 (Herbicidal rate of 40% or more and less than 70%)
CCOc1ccccc1-c1sc2cc(OCCOC)ccc2c1-c1c(O)c(C)nn(C)c1=O [3-123]	3 (Herbicidal rate of 40% or more and less than 70%)
COc1ccccc1-c1sc2cc(OCCSC)ccc2c1-c1c(O)c(C)nn(C)c1=O [3-125]	0 (Herbicidal rate of 5% or less (almost no effect))

Tested on: oval-leafed pondweed
Test: Test Example 2: herbicidal activity, application during weed generation under submerged conditions (Table 17, symbol C)
Format: in vivo, oval-leafed pondweed (Monochoria vaginalis)
Details: AAH 320 g/ha; application during weed generation, submerged conditions
Method in brief: as §2

Structure (SMILES)	herbicidal effect rating, C: oval-leafed pondweed
COc1ccccc1-c1sc2cc(OCC(F)F)ccc2c1-c1c(O)c(C)nn(C)c1=O [3-114]	5 (Herbicidal rate of 90% or more (almost completely withered))
CCOc1ccccc1-c1sc2cc(OCCOC)ccc2c1-c1c(O)c(C)nn(C)c1=O [3-123]	2 (Herbicidal rate of 20% or more and less than 40%)
COc1ccccc1-c1sc2cc(OCCSC)ccc2c1-c1c(O)c(C)nn(C)c1=O [3-125]	3 (Herbicidal rate of 40% or more and less than 70%)

Tested on: barnyard grass
Test: Test Example 3: herbicidal effect by foliage application, Wagner pot (Table 18, symbol H)
Format: in vivo, barnyard grass (Echinochloa crus-galli)
Details: 320 g/ha
Method in brief: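 Plants were sown in alluvial soil held under 0.1–0.5 cm standing water and grown 14 days in a greenhouse at 25–30 °C. An emulsifiable formulation, water-diluted to the set dose, was then sprayed onto the foliage, and effects were scored three weeks later using previously defined criteria.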

Structure (SMILES)	herbicidal effect on barnyard grass (H)
COc1ccccc1-c1sc2cc(OCC(F)F)ccc2c1-c1c(O)c(C)nn(C)c1=O [3-114]	5 (Herbicidal rate of 90% or more (almost completely withered))
CCOc1ccccc1-c1sc2cc(OCCOC)ccc2c1-c1c(O)c(C)nn(C)c1=O [3-123]	5 (Herbicidal rate of 90% or more (almost completely withered))
COc1ccccc1-c1sc2cc(OCCSC)ccc2c1-c1c(O)c(C)nn(C)c1=O [3-125]	5 (Herbicidal rate of 90% or more (almost completely withered))

Tested on: southern crabgrass
Test: Test Example 4: herbicidal effect by soil treatment (Table 19, symbol F)
Format: in vivo, southern crabgrass (Digitaria ciliaris)
Details: amount of applied herbicide 320 g/ha
Method in brief: (§3)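 Pre-emergence style soil spray: seeds under ~1.5 cm sterilized diluvial soil received a uniform coat of emulsion diluted to the predetermined herbicide amount. Greenhouse 25–30° C; readout at week three on previously defined criteria.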

Structure (SMILES)	F: southern crabgrass, herbicidal effect grade
COc1ccccc1-c1sc2cc(OCC(F)F)ccc2c1-c1c(O)c(C)nn(C)c1=O [3-114]	4 (Herbicidal rate of 70% or more and less than 90%)
CCOc1ccccc1-c1sc2cc(OCCOC)ccc2c1-c1c(O)c(C)nn(C)c1=O [3-123]	5 (Herbicidal rate of 90% or more (almost completely withered))
COc1ccccc1-c1sc2cc(OCCSC)ccc2c1-c1c(O)c(C)nn(C)c1=O [3-125]	3 (Herbicidal rate of 40% or more and less than 70%)

Tested on: wild oat
Test: Test Example 4: herbicidal effect by soil treatment (Table 19, symbol I)
Format: in vivo, wild oat (Avena fatua)
Details: amount of applied herbicide 320 g/ha
Method in brief: as §3

Structure (SMILES)	I: wild oat, herbicidal effect grade
COc1ccccc1-c1sc2cc(OCC(F)F)ccc2c1-c1c(O)c(C)nn(C)c1=O [3-114]	0 (Herbicidal rate of 5% or less (almost no effect))
CCOc1ccccc1-c1sc2cc(OCCOC)ccc2c1-c1c(O)c(C)nn(C)c1=O [3-123]	4 (Herbicidal rate of 70% or more and less than 90%)
COc1ccccc1-c1sc2cc(OCCSC)ccc2c1-c1c(O)c(C)nn(C)c1=O [3-125]	0 (Herbicidal rate of 5% or less (almost no effect))

Tested on: windgrass
Test: Test Example 4: herbicidal effect by soil treatment (Table 19, symbol L)
Format: in vivo, windgrass (Apera spica-venti)
Details: amount of applied herbicide 320 g/ha
Method in brief: as §3

Structure (SMILES)	L: windgrass, herbicidal effect grade
COc1ccccc1-c1sc2cc(OCC(F)F)ccc2c1-c1c(O)c(C)nn(C)c1=O [3-114]	5 (Herbicidal rate of 90% or more (almost completely withered))
CCOc1ccccc1-c1sc2cc(OCCOC)ccc2c1-c1c(O)c(C)nn(C)c1=O [3-123]	5 (Herbicidal rate of 90% or more (almost completely withered))
COc1ccccc1-c1sc2cc(OCCSC)ccc2c1-c1c(O)c(C)nn(C)c1=O [3-125]	3 (Herbicidal rate of 40% or more and less than 70%)

Tested on: velvetleaf
Test: Test Example 4: herbicidal effect by soil treatment (Table 19, symbol M)
Format: in vivo, velvetleaf (Abutilon theophrasti)
Details: amount of applied herbicide 320 g/ha
Method in brief: as §3

Structure (SMILES)	M: velvetleaf, herbicidal effect grade
COc1ccccc1-c1sc2cc(OCC(F)F)ccc2c1-c1c(O)c(C)nn(C)c1=O [3-114]	4 (Herbicidal rate of 70% or more and less than 90%)
CCOc1ccccc1-c1sc2cc(OCCOC)ccc2c1-c1c(O)c(C)nn(C)c1=O [3-123]	2 (Herbicidal rate of 20% or more and less than 40%)
COc1ccccc1-c1sc2cc(OCCSC)ccc2c1-c1c(O)c(C)nn(C)c1=O [3-125]	4 (Herbicidal rate of 70% or more and less than 90%)

Tested on: redroot pigweed
Test: Test Example 4: herbicidal effect by soil treatment (Table 19, symbol N)
Format: in vivo, redroot pigweed (Amaranthus retroflexus)
Details: amount of applied herbicide 320 g/ha
Method in brief: as §3

Structure (SMILES)	N: redroot pigweed, herbicidal effect grade
COc1ccccc1-c1sc2cc(OCC(F)F)ccc2c1-c1c(O)c(C)nn(C)c1=O [3-114]	5 (Herbicidal rate of 90% or more (almost completely withered))
CCOc1ccccc1-c1sc2cc(OCCOC)ccc2c1-c1c(O)c(C)nn(C)c1=O [3-123]	5 (Herbicidal rate of 90% or more (almost completely withered))
COc1ccccc1-c1sc2cc(OCCSC)ccc2c1-c1c(O)c(C)nn(C)c1=O [3-125]	5 (Herbicidal rate of 90% or more (almost completely withered))

Tested on: chickweed
Test: Test Example 4: herbicidal effect by soil treatment (Table 19, symbol P)
Format: in vivo, common chickweed (Stellaria media)
Details: amount of applied herbicide 320 g/ha
Method in brief: as §3

Structure (SMILES)	P: chickweed, herbicidal effect grade
COc1ccccc1-c1sc2cc(OCC(F)F)ccc2c1-c1c(O)c(C)nn(C)c1=O [3-114]	5 (Herbicidal rate of 90% or more (almost completely withered))
CCOc1ccccc1-c1sc2cc(OCCOC)ccc2c1-c1c(O)c(C)nn(C)c1=O [3-123]	5 (Herbicidal rate of 90% or more (almost completely withered))
COc1ccccc1-c1sc2cc(OCCSC)ccc2c1-c1c(O)c(C)nn(C)c1=O [3-125]	5 (Herbicidal rate of 90% or more (almost completely withered))

Tested on: persian speedwell
Test: Test Example 4: herbicidal effect by soil treatment (Table 19, symbol R)
Format: in vivo, Persian speedwell (Veronica persica)
Details: amount of applied herbicide 320 g/ha
Method in brief: as §3

Structure (SMILES)	R: persian speedwell, herbicidal effect grade
COc1ccccc1-c1sc2cc(OCC(F)F)ccc2c1-c1c(O)c(C)nn(C)c1=O [3-114]	5 (Herbicidal rate of 90% or more (almost completely withered))
CCOc1ccccc1-c1sc2cc(OCCOC)ccc2c1-c1c(O)c(C)nn(C)c1=O [3-123]	5 (Herbicidal rate of 90% or more (almost completely withered))
COc1ccccc1-c1sc2cc(OCCSC)ccc2c1-c1c(O)c(C)nn(C)c1=O [3-125]	5 (Herbicidal rate of 90% or more (almost completely withered))

Tested on: southern crabgrass
Test: Test Example 5: herbicidal effect by foliage application, plastic box (Table 20, symbol F)
Format: in vivo, southern crabgrass (Digitaria ciliaris)
Details: foliage application, 320 g/ha, three weeks after application
Method in brief: (§4)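 Plants were sown into sterilized diluvial soil under about 1.5 cm cover and kept in a greenhouse at 25° C. to 30° C. Fourteen days on, foliage received an even spray of the diluted emulsion. Herbicidal or crop effect was judged three weeks afterwards.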

Structure (SMILES)	F: southern crabgrass, herbicidal effect grade
COc1ccccc1-c1sc2cc(OCC(F)F)ccc2c1-c1c(O)c(C)nn(C)c1=O [3-114]	5 (Herbicidal rate of 90% or more (almost completely withered))
CCOc1ccccc1-c1sc2cc(OCCOC)ccc2c1-c1c(O)c(C)nn(C)c1=O [3-123]	5 (Herbicidal rate of 90% or more (almost completely withered))
COc1ccccc1-c1sc2cc(OCCSC)ccc2c1-c1c(O)c(C)nn(C)c1=O [3-125]	5 (Herbicidal rate of 90% or more (almost completely withered))

Tested on: green foxtail
Test: Test Example 5: herbicidal effect by foliage application, plastic box (Table 20, symbol G)
Format: in vivo, green foxtail (Setaria viridis)
Details: foliage application, 320 g/ha, three weeks after application
Method in brief: as §4

Structure (SMILES)	G: green foxtail, herbicidal effect grade
COc1ccccc1-c1sc2cc(OCC(F)F)ccc2c1-c1c(O)c(C)nn(C)c1=O [3-114]	5 (Herbicidal rate of 90% or more (almost completely withered))
CCOc1ccccc1-c1sc2cc(OCCOC)ccc2c1-c1c(O)c(C)nn(C)c1=O [3-123]	5 (Herbicidal rate of 90% or more (almost completely withered))
COc1ccccc1-c1sc2cc(OCCSC)ccc2c1-c1c(O)c(C)nn(C)c1=O [3-125]	5 (Herbicidal rate of 90% or more (almost completely withered))

Tested on: redroot pigweed
Test: Test Example 5: herbicidal effect by foliage application, plastic box (Table 20, symbol N)
Format: in vivo, redroot pigweed (Amaranthus retroflexus)
Details: foliage application, 320 g/ha, three weeks after application
Method in brief: as §4

Structure (SMILES)	N: redroot pigweed, herbicidal effect grade
COc1ccccc1-c1sc2cc(OCC(F)F)ccc2c1-c1c(O)c(C)nn(C)c1=O [3-114]	5 (Herbicidal rate of 90% or more (almost completely withered))
CCOc1ccccc1-c1sc2cc(OCCOC)ccc2c1-c1c(O)c(C)nn(C)c1=O [3-123]	5 (Herbicidal rate of 90% or more (almost completely withered))
COc1ccccc1-c1sc2cc(OCCSC)ccc2c1-c1c(O)c(C)nn(C)c1=O [3-125]	5 (Herbicidal rate of 90% or more (almost completely withered))
